Where two headings read alike, the source gives them in different places.
What was measured:
[1] = test system: acutely dissociated and purified rat OPCs; experiment: Acute OL differentiation assay (MBP expression/cell, immunofluorescent image quantification); type: cell-based; conditions: Rattus norvegicus
Summary of the method: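 This acute differentiation assay used purified rat OPCs from postnatal day 6–7 pups, seeded into PDL/laminin-coated 96-well plates in differentiation medium lacking PDGF and FGF. Compounds were applied in quadruplicate after a 1–2 h preincubation at 37 °C, 10 % CO2, with 0.1 % DMSO negative and 40 ng/ml T3 positive controls in eight wells. After fixation on DIV4, anti-MBP immunofluorescence images yielded MBP expression/cell.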

expanded OPCs = experiment: cells; conditions: for viability at 0.1 µM / viability at 1 µM / viability at 10 µM: Rattus norvegicus, 72 h; for 0.1 µM (% DMSO) / 1 µM (% DMSO) / 10 µM (% DMSO): alamarBlue viability of expanded OPCs, relative to DMSO control; for 0.1 µM (% DMSO): compound at 0.1 µM; for 1 µM (% DMSO): compound at 1 µM; for 10 µM (% DMSO): compound at 10 µM
Summary of the method: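 Toxicity screen: compounds added at 0.1, 1 and 10 µM to PDGF-AA-expanded OPCs in 96-well plates, 3-day incubation at 37 °C, 10% CO2, then alamarBlue 1:10 for 4 h with fluorescence readout. Results set screening doses of 10/2, 2/0.4 or 0.4/0.08 µM.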

[2] = 2 uM test compound, relative to quetiapine, sheet "All OLga data", read-out: OL differentiation, 2 uM (% Quet)
[3] = 10 uM test compound, relative to quetiapine, sheet "All OLga data", read-out: OL differentiation, 10 uM (% Quet)
[4] = read-out: 0.1 µM (% DMSO), alamarBlue viability, NCC library compound at 0.1 µM, sheet "All Tox data"
[5] = read-out: 1 µM (% DMSO), alamarBlue viability, NCC library compound at 1 µM, sheet "All Tox data"
[6] = read-out: 10 µM (% DMSO), alamarBlue viability, NCC library compound at 10 µM, sheet "All Tox data"
[7] = read-out: 0.1 µM (% DMSO), alamarBlue viability of expanded OPCs, compound at 0.1 µM, sheet All Tox data
[8] = read-out: 1 µM (% DMSO), alamarBlue viability of expanded OPCs, compound at 1 µM, sheet All Tox data
[9] = read-out: 10 µM (% DMSO), alamarBlue viability of expanded OPCs, compound at 10 µM, sheet All Tox data
[10] = test compound at 2 uM, NCC library screen, sheet "All OLga data", relative to quetiapine, read-out: 2 uM (% Quet)
[11] = test compound at 10 uM, NCC library screen, sheet "All OLga data", relative to quetiapine, read-out: 10 uM (% Quet)

Row | SMILES | activation at 2 µM [1, 2] [%] | viability at 0.1 µM (expanded OPCs; [4]) [%] | viability at 1 µM (expanded OPCs; [5]) [%] | viability at 10 µM (expanded OPCs; [6]) [%] | activation at 2 µM [1, 10] [%] | activation at 10 µM [1, 11] [%] | 0.1 µM (% DMSO) (expanded OPCs) | 1 µM (% DMSO) (expanded OPCs) | 10 µM (% DMSO) (expanded OPCs) | further results
1 | Cc1nc2ccccn2c(=O)c1CCN1CCC(C(=O)c2ccc(F)cc2)CC1 [Pirenperone] | 31.6 | 102 | 92.1 | 83 | – | – | – | – | – | activation at 10 µM [1, 3]: 62.7%
2 | c1cnc(N2CCN(Cc3ccc4c(c3)OCO4)CC2)nc1 [Piribedil] | 23.4 | – | – | – | – | – | – | – | – | activation at 10 µM [1, 3]: 29.9%; viability at 0.1 µM (expanded OPCs; [7]): 88.5%; viability at 1 µM (expanded OPCs; [8]): 100%; viability at 10 µM (expanded OPCs; [9]): 103%
3 | CN1C(C(=O)Nc2ccccn2)=C(O)c2ccccc2S1(=O)=O [Piroxicam] | – | 91.3 | 88.3 | 87.1 | 12.1 | -2.1 | – | – | – | –
4 | CN1CCC(=C2c3ccccc3CCc3sccc32)CC1 [Pizotyline] | -30.6 | – | – | – | – | – | – | – | – | activation at 0.4 µM ([1]; 0.4 uM test compound, relative to quetiapine, sheet "All OLga data", read-out: OL differentiation, 0.4 uM (% Quet)): -8.8%; viability at 0.1 µM (expanded OPCs; [7]): 86.7%; viability at 1 µM (expanded OPCs; [8]): 65.3%; viability at 10 µM (expanded OPCs; [9]): 24.6%
5 | OC[C@H]1O[C@@H](Oc2cc(O)cc(/C=C/c3ccc(O)cc3)c2)[C@H](O)[C@@H](O)[C@@H]1O [Polydatin] | -15 | – | – | – | – | – | – | – | – | activation at 10 µM [1, 3]: -20.9%; viability at 0.1 µM (expanded OPCs; [7]): 106%; viability at 1 µM (expanded OPCs; [8]): 110%; viability at 10 µM (expanded OPCs; [9]): 113%
6 | C[n+]1ccccc1/C=N/O [Pralidoxime] | – | 90.3 | 93.1 | 89.1 | -5 | -3.8 | – | – | – | –
7 | CC[C@H](C)C(=O)O[C@H]1C[C@H](O)C=C2C=C[C@H](C)[C@H](CC[C@@H](O)C[C@@H](O)CC(=O)O)[C@H]21 [Pravastatin] | 8.6 | – | – | – | – | – | – | – | – | activation at 10 µM [1, 3]: -87.5%; viability at 0.1 µM (expanded OPCs; [7]): 113%; viability at 1 µM (expanded OPCs; [8]): 124%; viability at 10 µM (expanded OPCs; [9]): 151%
8 | O=C(C1CCCCC1)N1CC(=O)N2CCc3ccccc3C2C1 (stereo not drawn) [Praziquantel] | – | – | – | – | 0.6 | -9.5 | 85.2 | 85.1 | 85.6 | –
9 | CC(=O)OCC(=O)[C@@]1(O)CC[C@H]2[C@@H]3CCC4=CC(=O)C=C[C@]4(C)[C@H]3[C@@H](O)C[C@@]21C [Prednisolone acetate] | – | – | – | – | – | – | 112.3 | 112.6 | 109.9 | activation at 2 µM ([1]; test compound at 2 uM, MBP expression relative to quetiapine, NCC library screen, sheet "All OLga data", read-out: 2 uM (% Quet)): -3.3%; activation at 10 µM ([1]; test compound at 10 uM, MBP expression relative to quetiapine, NCC library screen, sheet "All OLga data", read-out: 10 uM (% Quet)): -37.1%
10 | C[C@]12C=CC(=O)C=C1CC[C@@H]1[C@@H]2[C@@H](O)C[C@@]2(C)[C@H]1CC[C@]2(O)C(=O)COC(=O)CCC(=O)O [Prednisolone hemisuccinate] | – | 107 | 95 | 94.3 | 10.2 | 9.3 | – | – | – | –
11 | C[C@]12C=CC(=O)C=C1CC[C@@H]1[C@@H]2[C@@H](O)C[C@@]2(C)[C@H]1CC[C@]2(O)C(=O)CO [Prednisolone] | – | – | – | – | -21.9 | -15.7 | 117.5 | 112.6 | 109.9 | –
12 | C[C@]12C=CC(=O)C=C1CC[C@@H]1[C@@H]2C(=O)C[C@@]2(C)[C@H]1CC[C@]2(O)C(=O)CO [Prednisone] | – | – | – | – | -4.5 | -47.4 | 88.8 | 89.0 | 86.2 | –
13 | CCCNC(C)C(=O)Nc1ccccc1C (stereo not drawn) [Prilocaine] | – | – | – | – | 2.7 | -1.2 | 89.7 | 89.9 | 89.6 | –
14 | COc1cc(NC(C)CCCN)c2ncccc2c1 (stereo not drawn) [Primaquine] | – | – | – | – | – | – | 90.1 | 66.2 | 32.4 | activation at 0.4 µM ([1]; read-out: 0.4 uM (% Quet)): -10%; activation at 2 µM ([1]; read-out: 2 uM (% Quet)): -37.5%
15 | CCC1(c2ccccc2)C(=O)NCNC1=O [Primidone] | – | 86.9 | 89.5 | 82.3 | 1.4 | 15.6 | – | – | – | –

Source: article PMC5011342, “A high throughput drug screening assay to identify compounds that promote oligodendrocyte differentiation using acutely dissociated and purified oligodendrocyte precursor cells” (BMC Research Notes, 2016)
